The results in this text go back to patent US20200017467A1, “NOVEL TRIAZOLE DERIVATIVES” (BAYER CROPSCIENCE AKTIENGESELLSCHAFT, priority 2017, published 2020).

Structures are written as SMILES.

Series [1] in a line: Log P by HPLC on reversed phase columns (EEC directive 79/831 Annex V.A8). The class given is physicochemical. The note with it: method [a]: LC-UV, acidic range, 0.1% formic acid in water and acetonitrile; for chromatographic logP: reversed phase HPLC columns. As to the method:
Log P values: Measurement of Log P values was performed according to EEC directive 79/831 Annex V.A8 by HPLC (High Performance Liquid Chromatography) on reversed phase columns with the following methods: • ^[a] Log P value is determined by measurement of LC-UV, in an acidic range, with 0.1% formic acid in water and acetonitrile as eluent (linear gradient from 10% acetonitrile to 95% acetonitrile). • ^[b] Log P value is determined by measurement of LC-UV, in a neutral range, with 0.001 molar ammonium acetate solution in water and acetonitrile as eluent (linear gradient from 10% acetonitrile to 95% acetonitrile). • ^[c] Log P value is determined by measurement of LC-UV, in an acidic range, with 0.1% phosphoric acid and acetonitrile as eluent (linear gradient from 10% acetonitrile to 95% acetonitrile). If more than one Log P value is available within the same method, all the values are given and separated by “+”. Calibration was done with straight-chain alkan2-ones (with 3 to 16 carbon atoms) with known Log P values (measurement of Log P values using retention times with linear interpolation between successive alkanones). Lambda-max-values were determined using UV-spectra from 200 nm to 400 nm and the peak values of the chromatographic signals.

The test system of another series is Puccinia recondita. Briefly: In vivo preventive test on Puccinia recondita (brown rust on wheat). The note with it: 264 h, 500 ppm of active ingredient, preventive spray, evaluated 11 days after inoculation, read-out: efficacy. Here is the method:
(§1) Example A: In Vivo Preventive Test on Puccinia recondita (Brown Rust on Wheat) [table] The active ingredients were made soluble and homogenized in a mixture of dimethyl sulfoxide/acetone//Tween® 80 and then diluted in water to the desired concentration. Young plants of wheat were treated by spraying the active ingredient prepared as described above. Control plants were treated only with an aqueous solution of acetone/dimethyl sulfoxide/Tween® 80. After 24 hours, the plants were contaminated by spraying the leaves with an aqueous suspension of Puccinia recondita spores. The contaminated wheat plants were incubated for 24 hours at 20° C. and at 100% relative humidity and then for 10 days at 20° C. and at 70-80% relative humidity. The test was evaluated 11 days after the inoculation. 0% means an efficacy which corresponds to that of the control plants while an efficacy of 100% means that no disease was observed.

The next series relates to Septoria tritici. The series can be described thus: In vivo preventive test on Septoria tritici (leaf spot on wheat). The note with it: Zymoseptoria tritici, 576 h, 500 ppm of active ingredient, preventive spray, evaluated 24 days after inoculation, read-out: efficacy. Here is the method:
Example B: In Vivo Preventive Test on Septoria tritici (Leaf Spot on Wheat) [table] The active ingredients were made soluble and homogenized in a mixture of dimethyl sulfoxide/acetone//Tween® 80 and then diluted in water to the desired concentration. Young plants of wheat were treated by spraying the active ingredient prepared as described above. Control plants were treated only with an aqueous solution of acetone/dimethyl sulfoxide/Tween® 80. After 24 hours, the plants were contaminated by spraying the leaves with an aqueous suspension of Septoria tritici spores. The contaminated wheat plants were incubated for 72 hours at 18° C. and at 100% relative humidity and then for 21 days at 20° C. and at 90% relative humidity. The test was evaluated 24 days after the inoculation. 0% means an efficacy which corresponds to that of the control plants while an efficacy of 100% means that no disease was observed.

The next series relates to Sphaerotheca fuliginea. The series can be described thus: In vivo preventive test on Sphaerotheca fuliginea (powdery mildew on cucurbits). The note with it: Podosphaera fuliginea, 360 h; 500 ppm of active ingredient; gherkin, preventive spray, evaluated 15 days after inoculation; read-out: efficacy. Here is the method: Example C: In Vivo Preventive Test on Sphaerotheca fuliginea (Powdery Mildew on Cucurbits) [table] The active ingredients were made soluble and homogenized in a mixture of dimethyl sulfoxide/acetone//Tween® 80 and then diluted in water to the desired concentration. Young plants of gherkin were treated by spraying the active ingredient prepared as described above. Control plants were treated only with an aqueous solution of acetone/dimethyl sulfoxide/Tween® 80. After 24 hours, the plants were contaminated by spraying the leaves with an aqueous suspension of Sphaerotheca fuliginea spores. The contaminated gherkin plants were incubated for 72 hours at 18° C. and at 100% relative humidity and then for 12 days at 20° C. and at 70-80% relative humidity. The test was evaluated 15 days after the inoculation. 0% means an efficacy which corresponds to that of the control plants while an efficacy of 100% means that no disease was observed.

The test system of another series is Uromyces appendiculatus. Briefly: In vivo preventive test on Uromyces appendiculatus (bean rust). The note with it: 264 h, 500 ppm of active ingredient, preventive spray, evaluated 11 days after inoculation, read-out: efficacy. As to the method:
as §1, with “D:” for “A:”, “Uromyces appendiculatus (Bean Rust)” for “Puccinia recondita (Brown Rust on Wheat)”, “bean” for “wheat”, “Uromyces appendiculatus” for “Puccinia recondita”

Series [2] relates to Blumeria graminis fsp. hordei. The series can be described thus: In vivo preventive Blumeria test (barley). The note with it: 168 h, 500 ppm of active ingredient, preventive spray, evaluated 7 days after inoculation, read-out: efficacy. As to the method: Example E: In Vivo Preventive Blumeria Test (Barlev) [table] To produce a suitable preparation of active compound, 1 part by weight of active compound or active compound combination was mixed with the stated amounts of solvent and emulsifier, and the concentrate was diluted with water to the desired concentration. To test for preventive activity, young plants were sprayed with the preparation of active compound or active compound combination at the stated rate of application. After the spray coating had been dried, the plants were dusted with spores of Blumeria graminis fsp. hordei. The plants were placed in the greenhouse at a temperature of approximately 18° C. and a relative atmospheric humidity of approximately 80% to promote the development of mildew pustules. The test was evaluated 7 days after the inoculation. 0% means an efficacy which corresponds to that of the untreated control, while an efficacy of 100% means that no disease is observed.

As to `CC(O)(Cn1cncn1)c1ccc(Oc2ccc(Cl)nc2)nc1Cl` (stereo not drawn) [I-03], in series [1] (compounds of formula (I)), the LogP is 2.04^[a]. Consider `OC(Cn1cncn1)c1cnc(Oc2ccc(C(F)(F)F)nc2)cc1C(F)(F)F` (stereo not drawn) [I-08], for which the LogP in series [1] (compounds of formula (I)) was 2.35^[a]. Turning to `OC(Cn1cncn1)c1ccc(Oc2ccc(Cl)nc2)nc1C(F)(F)F` (stereo not drawn) [I-10], in series [1] (compounds of formula (I)), the LogP is 2.07^[a]. With `OC(Cn1cncn1)c1ccc(Oc2ccc(Cl)nc2)nc1Cl` (stereo not drawn) [I-11], the LogP in series [1] (compounds of formula (I)) was 1.79^[a]. On to `OC(Cn1cncn1)c1ccc(Oc2ccc(Br)nc2)nc1C(F)(F)F` (stereo not drawn) [I-12, 1-[6-[(6-bromo-3-pyridyl)oxy]-2-(trifluoromethyl)-3-pyridyl]-2-(1,2,4-triazol-1-yl)ethanol], for which the chromatographic logP – broadly, a lipophilicity value derived from retention on a column – in series [1] (compounds of formula (I)) stood at 2.03. For the same compound, the pest or weed control at 500 ppm is 80 to 89% with Puccinia recondita; 90 to 100% in the series on Septoria tritici; 90 to 100% in the series on Sphaerotheca fuliginea; 90 to 100% in the series on Uromyces appendiculatus; 90 to 100% in series [2]. Turning to `OC(Cn1cncn1)c1cnc(Oc2ccc(Cl)nc2)cc1C(F)(F)F` (stereo not drawn) [I-14, 1-[6-[(6-chloro-3-pyridyl)oxy]-4-(trifluoromethyl)-3-pyridyl]-2-(1,24-triazol-1-yl)ethanol], the chromatographic logP in series [1] (compounds of formula (I)) came to 1.99. Also, the pest or weed control at 500 ppm (in the series on Puccinia recondita; in the series with Septoria tritici; in the series on Sphaerotheca fuliginea; in the series on Uromyces appendiculatus; in series [2]) was 90 to 100% throughout. `CC(=O)c1ccc(Oc2ccc(Br)nc2)nc1C(F)(F)F` [V-01, 1-[6-[(6-bromo-3-pyridyl)oxy]-2-(trifluoromethyl)-3-pyridyl]ethanone]: the chromatographic logP in series [1] (compounds of formula (V)) turned out to be 3.12. For `CC(=O)c1ccc(Oc2ccc(C(F)(F)F)nc2)nc1C(F)(F)F` [V-02, 1-[2-(trifluoromethyl)-6-[[6-(trifluoromethyl)-3-pyridyl]oxy]-3-pyridyl]ethanone], in series [1] (compounds of formula (V)), the chromatographic logP was determined as 3.26.

For `CC(=O)c1ccc(Oc2ccc(Cl)nc2)nc1Cl` [V-03], in series [1] (compounds of formula (V)), the LogP is 2.66^[a].

For `CC(=O)c1cnc(Oc2ccc(C(F)(F)F)nc2)cc1C(F)(F)F` [V-04], the LogP in series [1] (compounds of formula (V)) is 3.44^[a]. `CC(=O)c1ccc(Oc2ccc(Cl)nc2)nc1C(F)(F)F` [V-05]: the LogP in series [1] (compounds of formula (V)) is 3.00^[a]. On to `CC(=O)c1cnc(Oc2ccc(Cl)nc2)cc1C(F)(F)F` [V-06, 1-[6-[(6-chloro-3-pyridyl)oxy]-4-(trifluoromethyl)-3-pyridyl]ethanone], for which, in series [1] (compounds of formula (V)), the chromatographic logP worked out at 3. `CC(=O)c1cnc(Oc2ccc(Br)nc2)cc1C(F)(F)F` [V-07]: the LogP in series [1] (compounds of formula (V)) was 3.17^[a]. Still for that read-out and setting: the figure for `CC(=O)c1ccc(Oc2ccc(F)nc2)nc1Cl` [V-08] is 2.39^[a]; for `CC(=O)c1ccc(Oc2ccc(C)nc2)nc1Cl` [V-09] it is 1.42^[a]. For the compound `CC(=O)c1cnc(Oc2ccc(Cl)nc2)cc1Cl` [V-10], the LogP in series [1] (compounds of formula (V)) is 2.59^[a]. Take `O=C(CCl)c1ccc(Oc2ccc(Br)nc2)nc1C(F)(F)F` [VI-01, 1-[6-[(6-bromo-3-pyridyl)oxy]-2-(trifluoromethyl)-3-pyridyl]-2-chloro-ethanone]: the chromatographic logP in series [1] (compounds of formula (VI)) was determined as 3.44. On the same count and under the same terms, for `O=C(CCl)c1ccc(Oc2ccc(C(F)(F)F)nc2)nc1C(F)(F)F` [VI-02, 2-chloro-1-[2-(trifluoromethyl)-6-[[6-(trifluoromethyl)-3-pyridyl]oxy]-3-pyridyl]ethanone] the value was 3.6. `O=C(CCl)c1ccc(Oc2ccc(Cl)nc2)nc1Cl` [VI-03]: the LogP in series [1] (compounds of formula (VI)) is 3.00^[a]. As to `O=C(CCl)c1cnc(Oc2ccc(C(F)(F)F)nc2)cc1C(F)(F)F` [VI-04], in series [1] (compounds of formula (VI)), the LogP is 3.64^[a]. Still for that read-out and setting: the figure for `O=C(CCl)c1ccc(Oc2ccc(Cl)nc2)nc1C(F)(F)F` [VI-05] is 3.27^[a]. Turning to `O=C(Cn1cncn1)c1ccc(Oc2ccc(Br)nc2)nc1C(F)(F)F` [VII-01, 1-[6-[(6-bromo-3-pyridyl)oxy]-2-(trifluoromethyl)-3-pyridyl]-2-(1,2,4-triazol-1-yl)ethanone], the chromatographic logP in series [1] (compounds of formula (VII)) came out at 2.23. Further, the pest or weed control at 500 ppm with Puccinia recondita fell in the range of 80 to 89%; in the series on Septoria tritici, 90 to 100%; in the series on Sphaerotheca fuliginea, 90 to 100%; with Uromyces appendiculatus, 90 to 100%. With `O=C(Cn1cncn1)c1ccc(Oc2ccc(C(F)(F)F)nc2)nc1C(F)(F)F` [VII-02, 2-(1,2,4-triazol-1-yl)-1-[2-(trifluoromethyl)-6-[[6-(trifluoromethyl)-3-pyridyl]oxy]-3-pyridyl]ethanone], the chromatographic logP in series [1] (compounds of formula (VII)) turned out to be 2.43. In addition, the pest or weed control at 500 ppm fell in the range of 80 to 89% in the series on Puccinia recondita, 90 to 100% with Septoria tritici, 90 to 100% in the series on Sphaerotheca fuliginea and 90 to 100% in the series on Uromyces appendiculatus.

On to `O=C(Cn1cncn1)c1ccc(Oc2ccc(Cl)nc2)nc1Cl` [VII-03], for which the LogP in series [1] (compounds of formula (VII)) is 1.99^[a]. `O=C(Cn1cncn1)c1cnc(Oc2ccc(C(F)(F)F)nc2)cc1C(F)(F)F` [VII-04]: in series [1] (compounds of formula (VII)), the LogP was 2.66^[a]. On to `O=C(Cn1cncn1)c1ccc(Oc2ccc(Cl)nc2)nc1C(F)(F)F` [VII-05], for which the LogP in series [1] (compounds of formula (VII)) is 2.23^[a]. `O=C(Cn1cncn1)c1cnc(Oc2ccc(Cl)nc2)cc1C(F)(F)F` [VII-06, 1-[6-[(6-chloro-3-pyridyl)oxy]-4-(trifluoromethyl)-3-pyridyl]-2-(1,2,4-triazol-1-yl)ethanone]: the chromatographic logP in series [1] (compounds of formula (VII)) amounted to 2.21. For the same compound, the pest or weed control at 500 ppm was 80 to 89% in the series on Septoria tritici and 90 to 100% in the series with Sphaerotheca fuliginea. For `O=C(Cn1cncn1)c1cnc(Oc2ccc(Br)nc2)cc1C(F)(F)F` [VII-07], the LogP in series [1] (compounds of formula (VII)) was 2.94^[a].
